For one assay, the target named is MCH receptor (Homo sapiens, UniProt Q99705). Briefly: High throughput functional screening FLIPR/FDSS6000: inhibition of MCH-evoked intracellular Ca2+ changes. It counts as cell-based. Particulars: class by percent of control at 10^-7 M or IC50. In outline: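 In a kinetic calcium-flux format, compounds were tested at various concentrations against 50 nM MCH. Fluo4-loaded cells expressing a constitutively active, non-endogenous receptor were imaged at 488/530 nm for 290 s after agonist addition.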
As to `CN(C)c1nc(N[C@H]2CC[C@@H](CNC(=O)NC3C[C@H]3c3ccccc3)CC2)nc2ccccc12` (some centres unmarked) [compound 451], the class is given as 3 (Class 3: The value of percent of control at 10^−7 M was more than 60% or the value of IC50 was more than 200 nM.).

With `CCCCc1ccc(NC(=O)N[C@H]2CC[C@@H](Nc3nc(N(C)C)c4ccccc4n3)CC2)c(C)c1` [compound 346], the class is 1 (Class 1: The value of percent of control at 10^−7 M was less than 40% or the value of IC50 was less than 50 nM.).

`CSc1ccccc1NC(=O)NC[C@H]1CC[C@@H](Nc2nc(N(C)C)c3ccccc3n2)CC1` [compound 471, N-[(cis-4-{[4-(dimethylamino)quinazolin-2-yl]amino}cyclohexyl)methyl]-N′-[2-(methylthio)phenyl]urea]: the class is given as 2 (Class 2: The value of percent of control at 10^−7 M was from 40% to 60% or the value of IC50 was from 50 nM to 200 nM.).

As to `CN(C)c1nc(N[C@H]2CC[C@@H](NC(=S)NCC(c3ccccc3)c3ccccc3)CC2)nc2ccccc12` [compound 290, N-(cis-4-{[4-(dimethylamino)quinazolin-2-yl]amino}cyclohexyl)-N′-(2,2-diphenylethyl)thiourea], the class was 2 (Class 2: The value of percent of control at 10^−7 M was from 40% to 60% or the value of IC50 was from 50 nM to 200 nM.).

On to `Cc1cc(NC(=O)N[C@H]2CC[C@@H](Nc3nc(N(C)C)c4ccccc4n3)CC2)c(C(F)(F)F)o1` [compound 347, N-(cis-4-{[4-(dimethylamino)quinazolin-2-yl]amino}cyclohexyl)-N′-[5-methyl-2-(trifluoromethyl)-3-furyl]urea], for which the class was 1 (Class 1: The value of percent of control at 10^−7 M was less than 40% or the value of IC50 was less than 50 nM.).

For the molecule `COc1ccc(CNC(=S)NC[C@H]2CC[C@@H](Nc3nc(N(C)C)c4ccccc4n3)CC2)cc1` [compound 701], the class is 3 (Class 3: The value of percent of control at 10^−7 M was more than 60% or the value of IC50 was more than 200 nM.).

Consider `Cc1cc(F)ccc1NC(=S)NC[C@H]1CC[C@@H](Nc2nc(N(C)C)c3ccccc3n2)CC1` [compound 739], for which the class is 3 (Class 3: The value of percent of control at 10^−7 M was more than 60% or the value of IC50 was more than 200 nM.).

On to `CN(C)c1nc(N[C@H]2CC[C@@H](NC(=S)Nc3ccc4c(c3)OCCO4)CC2)nc2ccccc12` [compound 368, N-(2,3-dihydro-1,4-benzodioxin-6-yl)-N′-(cis-4-{[4-(dimethylamino)quinazolin-2-yl]amino}cyclohexyl)thiourea], for which the class is 1 (Class 1: The value of percent of control at 10^−7 M was less than 40% or the value of IC50 was less than 50 nM.).

Regarding `COc1ccc(NC(=S)N[C@H]2CC[C@@H](Nc3nc(N(C)C)c4ccccc4n3)CC2)cc1OC` [compound 204], the class is 1 (Class 1: The value of percent of control at 10^−7 M was less than 40% or the value of IC50 was less than 50 nM.).

In the case of `CN(C)c1nc(N[C@H]2CC[C@@H](CNC(=O)Nc3cc(F)cc(C(F)(F)F)c3)CC2)nc2ccccc12` [compound 532], the class is 2 (Class 2: The value of percent of control at 10^−7 M was from 40% to 60% or the value of IC50 was from 50 nM to 200 nM.).

Turning to `CN(C)c1nc(N[C@H]2CC[C@@H](CNC(=O)Nc3c(F)cc(Br)cc3Br)CC2)nc2ccccc12` [compound 476, N-(2,4-dibromo-6-fluorophenyl)-N′-[(cis-4-{[4-(dimethylamino)quinazolin-2-yl]amino}cyclohexyl)methyl]urea], the class is 1 (Class 1: The value of percent of control at 10^−7 M was less than 40% or the value of IC50 was less than 50 nM.).

On to `CN(C)c1nc(N[C@H]2CC[C@@H](CNC(=S)Nc3ccccc3OC(F)F)CC2)nc2ccccc12` [compound 639], for which the class is 3 (Class 3: The value of percent of control at 10^−7 M was more than 60% or the value of IC50 was more than 200 nM.).

As to `Cc1ccc(CCNC(=S)NC[C@H]2CC[C@@H](Nc3nc(N(C)C)c4ccccc4n3)CC2)cc1` [compound 744], the class is recorded as 3 (Class 3: The value of percent of control at 10^−7 M was more than 60% or the value of IC50 was more than 200 nM.).

Turning to `CN(C)c1nc(N[C@H]2CC[C@@H](CNC(=S)Nc3cc(Cl)ccc3F)CC2)nc2ccccc12` [compound 797, N-(5-choloro-2-fluorophenyl)-N′-[(cis-4-{[4-(dimethylamino)-quinazolin-2-yl]amino}cyclohexyl)methyl]thiourea], the class was 3 (Class 3: The value of percent of control at 10^−7 M was more than 60% or the value of IC50 was more than 200 nM.).

Take `COC(=O)c1cc(NC(=O)N[C@H]2CC[C@@H](Nc3nc(N(C)C)c4ccccc4n3)CC2)cc(C(=O)OC)c1` [compound 331]: the class is reported as 3 (Class 3: The value of percent of control at 10^−7 M was more than 60% or the value of IC50 was more than 200 nM.).

With `CN(C)c1nc(N[C@H]2CC[C@@H](CNC(=S)NCc3ccco3)CC2)nc2ccccc12` [compound 598], the class is 3 (Class 3: The value of percent of control at 10^−7 M was more than 60% or the value of IC50 was more than 200 nM.).

For the molecule `CN(C)c1nc(N[C@H]2CC[C@@H](NC(=S)NC3C[C@@H]4CC[C@H]3C4)CC2)nc2ccccc12` (some centres unmarked) [compound 239], the class is reported as 2 (Class 2: The value of percent of control at 10^−7 M was from 40% to 60% or the value of IC50 was from 50 nM to 200 nM.).

As to `COc1ccccc1CNC(=S)NC[C@H]1CC[C@@H](Nc2nc(N(C)C)c3ccccc3n2)CC1` [compound 788], the class was 3 (Class 3: The value of percent of control at 10^−7 M was more than 60% or the value of IC50 was more than 200 nM.).

The same assay, now with this note: class by percent of control at 10^-7 M or by IC50; read-out: class.
In the case of `Cc1cccc([N+](=O)[O-])c1NC(=O)N[C@H]1CC[C@@H](Nc2nc(N(C)C)c3ccccc3n2)CC1` [compound 110], the IC50 is more than 200 nM.

With `CN(C)c1nc(N[C@H]2CC[C@@H](NC(=S)Nc3ccccc3Cl)CC2)nc2ccccc12` [compound 202], the IC50 is more than 200 nM.

In the case of `Cc1ccc(F)c(NC(=O)N[C@H]2CC[C@@H](Nc3nc(N(C)C)c4ccccc4n3)CC2)c1` [compound 98, N-(cis-4-{[4-(dimethylamino)quinazolin-2-yl]amino}cyclohexyl)-N′-(2-fluro-5-methylphenyl)urea], the IC50 is more than 200 nM.

In the case of `CN(C)c1nc(N[C@H]2CC[C@@H](NC(=S)Nc3c(F)c(F)c(F)c(F)c3F)CC2)nc2ccccc12` [compound 192, N-(cis-4-{[4-(dimethylamino)quinazolin-2-yl]amino}cyclohexyl)-N′-(pentafluorophenyl)thiourea], the IC50 was in the range of 50 to 200 nM.

As for `CN(C)c1nc(N[C@H]2CC[C@@H](NC(=S)NCc3ccco3)CC2)nc2ccccc12` [compound 174], the IC50 was more than 200 nM.

For the molecule `CC(C)c1ccc(NC(=O)N[C@H]2CC[C@@H](Nc3nc(N(C)C)c4ccccc4n3)CC2)cc1` [compound 39], the IC50 is more than 200 nM.

For `CNC(=S)N[C@H]1CC[C@@H](Nc2nc(N(C)C)c3ccccc3n2)CC1` [compound 186], the IC50 was more than 200 nM.

As to `CN(C)c1nc(N[C@H]2CC[C@@H](C(=O)NCc3ccc(F)cc3F)CC2)nc2ccccc12` [Example 922, cis-N-(2,4-Difluorobenzyl)-4-{[4-(dimethylamino)quinazolin-2-yl]amino}cyclohexanecarbozamide], the IC50 was more than 200 nM.

Regarding `CC(NC(=O)N[C@H]1CC[C@@H](Nc2nc(N(C)C)c3ccccc3n2)CC1)c1cccc2ccccc12` (stereo partly drawn) [compound 61, N-(cis-4-{[4-(dimethylamino)quinazolin-2-yl]amino}cyclohexyl)-N′-[1-(-napthyl)ethyl]urea], the IC50 is less than 50 nM.

Turning to `CSc1cccc(NC(=O)N[C@H]2CC[C@@H](Nc3nc(N(C)C)c4ccccc4n3)CC2)c1` [compound 118], the IC50 lay in the range of 50 to 200 nM.

Still in this assay, the particulars now being: class by percent of control at 10^−7 M or by IC50; read-out: class.
For the molecule `CN(C)c1nc(N[C@H]2CC[C@@H](C(=O)NCc3c(F)cccc3Cl)CC2)nc2ccccc12` [Example 1179, cis-N-(2-chloro-6-fluorobenzyl)-4-{[4-(dimethylamino)quinazolin-2-yl]amino}cyclohexanecarboxamide], the IC50 was less than 50 nM.

Turning to `CN(C)c1nc(N[C@H]2CC[C@@H](CNC(=O)C(O)c3ccc(Cl)cc3)CC2)nc2ccccc12` (relative stereo) [Example 1099, 2-(4-chlorophenyl)-N-[(cis-4-{[4-(dimethylamino)quinazolin-2-yl]amino}cyclohexyl)methyl]-2-hydroxyacetamide], the IC50 was more than 200 nM.

`CN(C)c1nc(N[C@H]2CC[C@@H](C(=O)NCc3cc(F)c(F)cc3F)CC2)nc2ccccc12` [Example 1170, cis-4-{[4-(dimethylamino)quinazolin-2-yl]amino}-N-(2,4,5-trifluorobenzyl)cyclohexanecarboxamide]: the IC50 was less than 50 nM.

With `CN(C)c1nc(N[C@H]2CC[C@@H](CNC(=O)c3ccc(Cl)cc3)C2)nc2ccccc12` [Example 1121, 4-chloro-N-[((1R,3S)-3-{[4-(dimethylamino)quinazolin-2-yl]amino}cyclopentyl)methyl]benzamide], the IC50 was in the range of 50 to 200 nM.

On to `CN(C)c1nc(N[C@H]2CC[C@@H](CNC(=O)Nc3c(Cl)cccc3Cl)CC2)nc2ccccc12` [Example 1025, N-(2,6-dichlorophenyl)-N′-[(cis-4-{[4-(dimethylamino)quinazolin-2-yl]amino}cyclohexyl)methyl]urea], for which the IC50 is less than 50 nM.

For “N-(cis-4-{[4-(dimethylamino)quinazolin-2-yl]amino}cyclohexyl)-6-(3,4,5-trimethoxyphenoxy)nicotinamide [Example 1067]”, the IC50 lay in the range of 50 to 200 nM.

`CN(C)c1nc(N[C@H]2CC[C@@H](CNC(=O)[C@H](O)c3ccccc3)CC2)nc2ccccc12` [Example 1102, (2R)-N-[(cis-4-{[4-(dimethylamino)quinazolin-2-yl]amino}cyclohexyl)methyl]-2-hydroxy-2-phenylacetamide]: the IC50 was more than 200 nM.

For the origin of these results see patent US20070010671A1, “Novel quinazoline derivatives and methods of treatment related to the use thereof” (priority 2003, published 2007).
